This passage reports IC50 and Activity results from ChEMBL document CHEMBL4665628, “Pyranocarbazole derivatives as potent anti-cancer agents triggering tubulin polymerization stabilization induced activation of caspase-dependent apoptosis and downregulation of Akt/mTOR in breast cancer cells” (Eur J Med Chem, 2019).

Counter-ions that a name gives are not always drawn. The source made the active and inactive calls. No cut-off for these calls is given here.

The subject of one test is HepG2. The experiment in a line: cells. The test is classed as functional, cell-based. The conditions noted are these: Homo sapiens, HepG2, 24 h.
For the next test, the system named is DU-145. As to the kind of experiment: cells. The test is classed as functional, cell-based. The conditions noted are these: Homo sapiens, DU-145, 24 h.
Test [1] deals with MDA-MB-231. The experiment in a line: cells. In kind it is functional, cell-based. The note with it: Homo sapiens, MDA-MB-231, 24 h.
Description: Anticancer activity against human MDA-MB-231 cells assessed as cell growth inhibition measured after 24 hrs by MTT assay
Another test relates to A549. As to the kind of experiment: cells. The conditions noted are these: Homo sapiens, A549, 24 h. In kind it is functional, cell-based.
A further test deals with MCF7. As to the kind of experiment: cells. In kind it is functional, cell-based. The note with it: Homo sapiens, MCF7, 24 h.
In another test the test system is HEK293. The experiment in a line: cells. The test is classed as ADME, cell-based. The conditions noted are these: Homo sapiens, HEK293, 24 h.
For another test, the system named is PC-3. The experiment in a line: cells. In kind it is functional, cell-based. The conditions noted are these: Homo sapiens, PC-3, 24 h.
Another test has as its system DLD-1. The experiment in a line: cells. The test is classed as functional, cell-based. The note with it: Homo sapiens, DLD-1, 24 h.
In the next test the target is Tubulin (Homo sapiens) (UniProt P68371+Q9H4B7+P0DPH7+P68366+Q13509+Q71U36+P04350+Q3ZCM7+P07437+P68363+Q9BQE3+Q6PEY2+Q13885+Q9BVA1+Q9BUF5). As to the kind of experiment: Inhibition of tubulin (unknown origin) polymerization assessed as stabilization of microtubules at10 uM measured up to 60 mins in presence of GTP. The test is classed as protein-complex assay. The conditions noted are these: dose 10.0 µM, time min <=60.

In a further test the test system is DNA. The experiment in a line: Binding affinity to DNA (unknown origin) at 0.1 to 0.2 mM by agarose gel electrophoresis. The test is classed as nucleic-acid assay. The note with it: dose mM 0.1-0.2.
Test [2] has as its system MDA-MB-231. As to the kind of experiment: Induction of mitochondrial membrane depolarization in human MDA-MB-231 cells at 10 uM measured after 24 hrs by JC-1 staining based flow cytometry analysis (reference value: 0.89 to 3.24 %). The test is classed as functional. Background: Flow cytometry measures light scatter and fluorescence of single cells or particles in a stream.

Description for A549: Anticancer activity against human A549 cells assessed as cell growth inhibition measured after 24 hrs by MTT assay
Description for DLD-1: Anticancer activity against human DLD-1 cells assessed as cell growth inhibition measured after 24 hrs by MTT assay
Description for DU-145: Anticancer activity against human DU-145 cells assessed as cell growth inhibition measured after 24 hrs by MTT assay
Description for HEK293: Cytotoxicity against HEK293 cells assessed as cell growth inhibition measured after 24 hrs by MTT assay
Description for HepG2: Anticancer activity against human HepG2 cells assessed as cell growth inhibition measured after 24 hrs by MTT assay
Description for MCF7: Anticancer activity against human MCF7 cells assessed as cell growth inhibition measured after 24 hrs by MTT assay
Description for PC-3: Anticancer activity against human PC-3 cells assessed as cell growth inhibition measured after 24 hrs by MTT assay

Usually IC50 stands for the concentration at which inhibition is half-maximal. A low value points to higher potency. Take `C=CCn1c2cc(OC)c(OC)cc2c2cc(C)c3c(c21)C=CC(C)(C)O3`: the concentration for half-maximal inhibition (IC50) was 42.9 µM in the test with HepG2; over 100 µM with DU-145; 36.5 µM with MDA-MB-231 [1]; over 100 µM with A549; over 100 µM in the test with MCF7; over 100 µM with HEK293. The IC50 is over 100 µM in the test on PC-3 and 75.3 µM with DLD-1.
In the case of `COc1ccc2c(c1)c1cc(C)c3c(c1n2Cc1ccccc1Br)C=CC(C)(C)O3`, the IC50 in the test with HepG2 is 16 µM; with DU-145, over 100 µM; in the test with MDA-MB-231 [1], over 100 µM; in the test with A549, 56.5 µM; in the test with MCF7 it was 59.1 µM; in the test with HEK293, over 100 µM. The IC50 is 15.2 µM in the test with PC-3 and over 100 µM in the test with DLD-1.
In the case of `COc1cc2[nH]c3c4c(c(C=O)cc3c2cc1OC)OC(C)(C)C=C4`, the 50% inhibitory concentration (IC50) was 35.5 µM in the test with HepG2; 70 µM in the test on DU-145; 8.3 µM with MDA-MB-231 [1]; 33.6 µM in the test with A549; over 100 µM with MCF7; over 100 µM in the test on HEK293. Also, the half-maximal inhibitory concentration (IC50) with PC-3 was 27.3 µM; in the test on DLD-1, over 100 µM.
Take `COc1ccc2c(c1)c1cc(C=O)c3c(c1n2Cc1ccccc1)C=CC(C)(C)O3`: the IC50 with HepG2 was 42.4 µM; in the test with DU-145 it was over 100 µM; with MDA-MB-231 [1] it was 30.7 µM; with A549 it was 36.6 µM; in the test with MCF7, 32.8 µM; in the test with PC-3, 32.9 µM. The same compound came in with an IC50 in the test on DLD-1 of over 100 µM.
For the compound `CC(=O)O[C@H]1C(=O)[C@@]2(C)[C@H]([C@H](OC(=O)c3ccccc3)[C@]3(O)C[C@H](OC(=O)[C@H](O)[C@@H](NC(=O)c4ccccc4)c4ccccc4)C(C)=C1C3(C)C)[C@]1(OC(C)=O)CO[C@@H]1C[C@@H]2O`, the outcome at Tubulin (Homo sapiens) was Active.
In the case of `COc1cc2c3cc(C)c4c(c3n(C/C(I)=C\I)c2cc1OC)C=CC(C)(C)O4`, the IC50 with HepG2 is 15.5 µM; with DU-145, 47.6 µM; with MDA-MB-231 [1], 4.4 µM; with A549, 71.7 µM; in the test on MCF7, 44.9 µM; in the test with HEK293, over 100 µM. In addition, the IC50 in the test on PC-3 stood at 9.6 µM; in the test on DLD-1, 8.5 µM.
`COc1ccc2c(c1)c1cc(C)c3c(c1n2Cc1cc(F)ccc1F)C=CC(C)(C)O3`: the 50% inhibitory concentration (IC50) in the test on HepG2 was 9.1 µM; in the test with DU-145, over 100 µM; in the test with MDA-MB-231 [1], over 100 µM; in the test on A549 it was 53.3 µM; in the test with MCF7 it was 51.8 µM; in the test with HEK293, over 100 µM. Moreover, the IC50 in the test on PC-3 came to 33.1 µM; in the test with DLD-1, 54.2 µM.
Consider `COc1cccc2c1C(=O)c1c(O)c3c(c(O)c1C2=O)C[C@@](O)(C(=O)CO)C[C@@H]3O[C@H]1C[C@H](N)[C@H](O)[C@H](C)O1` [DOXORUBICIN], for which the half-inhibitory concentration (IC50) in the test on HepG2 was 8 µM; in the test with DLD-1 it was 10.2 µM. In addition, in the test with DNA, the result was Active.
Consider `COc1cc2c3cc(C)c4c(c3n(Cc3cc(Cl)ccc3Cl)c2cc1OC)C=CC(C)(C)O4`, for which the IC50 was 33.8 µM in the test with HepG2; over 100 µM in the test on DU-145; 19.7 µM in the test with MDA-MB-231 [1]; 14.8 µM in the test on A549; 29.4 µM with MCF7; 7.4 µM in the test on PC-3. It took 35.4 µM to reach half-maximal inhibition with DLD-1 (IC50).
For the compound `CC/C(=C(\c1ccccc1)c1ccc(OCCN(C)C)cc1)c1ccccc1` [TAMOXIFEN CITRATE], the IC50 with DU-145 amounted to 11.2 µM; in the test on MDA-MB-231 [1] it was 12.8 µM; in the test on MCF7, 6.2 µM; with HEK293, 27.3 µM; in the test with PC-3, 11.7 µM.
Turning to `COc1cc2c3cc(C)c4c(c3n(Cc3ccccc3)c2cc1OC)C=CC(C)(C)O4`, the IC50 is 47.1 µM in the test with HepG2; over 100 µM in the test on DU-145; 28.5 µM with MDA-MB-231 [1]; 80.1 µM in the test on A549; 71.9 µM with MCF7; over 100 µM with HEK293. In addition, the IC50 came to 29.2 µM in the test with PC-3 and 42.1 µM in the test on DLD-1.
With `N#CC(C#N)=NNc1cccc(Cl)c1` [CARBONYL CYANIDE M-CHLOROPHENYLHYDRAZONE], in the test on MDA-MB-231 [2], the Activity is listed as 12.75%.
On to `COc1cc2c3cc(C=O)c4c(c3n(Cc3cccc(Cl)c3)c2cc1OC)C=CC(C)(C)O4`, for which the half-maximal inhibitory concentration (IC50) in the test on HepG2 is over 100 µM; in the test with DU-145, over 100 µM; in the test with MDA-MB-231 [1], over 100 µM; in the test with A549, over 100 µM; in the test on MCF7, 72.4 µM; in the test with PC-3, 70.5 µM. In addition, in the test with DLD-1, the IC50 is over 100 µM.
In the case of `C#CCn1c2ccc(OC)cc2c2cc(C)c3c(c21)C=CC(C)(C)O3`, the IC50 in the test on HepG2 is over 100 µM; with DU-145, over 100 µM; with MDA-MB-231 [1], 52.4 µM; in the test with A549, over 100 µM; in the test with MCF7, over 100 µM; in the test with HEK293, over 100 µM. Further, the IC50 with PC-3 is over 100 µM; in the test with DLD-1, 50.1 µM.
With `COc1cccc(Cn2c3cc(OC)c(OC)cc3c3cc(C=O)c4c(c32)C=CC(C)(C)O4)c1`, the IC50 with HepG2 is over 100 µM; in the test with DU-145, over 100 µM; in the test on MDA-MB-231 [1], over 100 µM; with A549, over 100 µM; with MCF7, over 100 µM; in the test with PC-3, 77.2 µM. The concentration for half-maximal inhibition (IC50) in the test on DLD-1 was over 100 µM.
`COc1cc2c3cc(C)c4c(c3n(Cc3cccc(C)c3)c2cc1OC)C=CC(C)(C)O4`: the IC50 in the test on HepG2 is 9.6 µM; in the test with DU-145, over 100 µM; in the test on MDA-MB-231 [1], 28 µM; in the test with A549 it was 96.6 µM; in the test on MCF7, 64.9 µM; in the test with HEK293, over 100 µM. For the same compound, the results for the IC50 with PC-3 and in the test on DLD-1 were 14.1 µM and 73.4 µM, respectively.
On to `COc1ccc2c(c1)c1cc(C)c3c(c1n2Cc1cccc(C)c1)C=CC(C)(C)O3`, for which the IC50 is 34.6 µM in the test with HepG2; 55.7 µM with DU-145; 46.5 µM in the test on MDA-MB-231 [1]; 35.7 µM in the test on A549; 48.2 µM with MCF7; over 100 µM in the test on HEK293. For the same compound, the values for the IC50 with PC-3 and with DLD-1 were 35.5 µM and 73.1 µM, respectively.
Turning to `COc1ccc2c(c1)c1cc(C)c3c(c1n2Cc1ccccc1)C=CC(C)(C)O3`, the IC50 in the test with HepG2 is 41.8 µM; with DU-145, over 100 µM; with MDA-MB-231 [1] it was 46.5 µM; in the test on A549, 64 µM; in the test with MCF7 it was over 100 µM; in the test on HEK293, over 100 µM. The IC50 in the test with PC-3 worked out at 74.9 µM; in the test on DLD-1, 52.8 µM.
On to `COc1ccc2c(c1)c1cc(C)c3c(c1n2Cc1ccc(F)cc1F)C=CC(C)(C)O3`, for which the IC50 with HepG2 was 36.8 µM; in the test with DU-145, over 100 µM; in the test with MDA-MB-231 [1], 23.2 µM; with A549 it was 88 µM; in the test with MCF7, over 100 µM; with HEK293, over 100 µM. The IC50 in the test on PC-3 was 13.3 µM; with DLD-1 it was 34.1 µM.
On to `COc1cc2c3cc(C)c4c(c3n(Cc3ccccc3Br)c2cc1OC)C=CC(C)(C)O4`, for which the IC50 in the test on HepG2 was 8.2 µM; in the test with DU-145 it was 36.6 µM; in the test on MDA-MB-231 [1], 36.7 µM; in the test on A549, 24.4 µM; in the test with MCF7 it was 70.7 µM; in the test on HEK293, over 100 µM. The IC50 turned out to be 9.3 µM in the test on PC-3 and 35.9 µM in the test with DLD-1.
Consider `COc1ccc2[nH]c3c4c(c(C=O)cc3c2c1)OC(C)(C)C=C4` [CLAULANSINE F], for which the IC50 is 33.3 µM in the test on HepG2; over 100 µM with DU-145; 2.6 µM in the test with MDA-MB-231 [1]; over 100 µM in the test on A549; 3.9 µM with MCF7; 2.5 µM in the test with HEK293. Further, the IC50 with PC-3 amounted to 56.4 µM; in the test with DLD-1, 54.7 µM.
In the case of `COc1cccc(Cn2c3cc(OC)c(OC)cc3c3cc(C)c4c(c32)C=CC(C)(C)O4)c1`, the IC50 is 41.8 µM with HepG2; over 100 µM in the test with DU-145; 33.4 µM with MDA-MB-231 [1]; 29.1 µM in the test on A549; 65.6 µM in the test on MCF7; 20 µM with PC-3. The same compound came in with a 50% inhibitory concentration (IC50) in the test with DLD-1 of 56.1 µM.
`C#CCn1c2cc(OC)c(OC)cc2c2cc(C)c3c(c21)C=CC(C)(C)O3`: the half-inhibitory concentration (IC50) is 38.8 µM in the test on HepG2; over 100 µM with DU-145; 9.7 µM in the test on MDA-MB-231 [1]; 51.5 µM in the test on A549; over 100 µM in the test with MCF7; over 100 µM with HEK293. Further, the results for the IC50 with PC-3 and in the test on DLD-1 were 76.1 µM and over 100 µM, respectively.
